This note sets out measurements from patent publication US11008314B2, “Compounds and methods for modulating interleukin-2-inducible t-cell kinase” (CORVUS PHARMACEUTICALS, INC., priority 2016, dated 2021).

Bounds are passed on as bounds.

The target of one data set is BTK (Homo sapiens (Human), UniProt Q06187). Briefly: IC50 against BTK. It is filed as biochemical.
For the next data set, the target named is ITK (Homo sapiens (Human), UniProt Q08881). Briefly: IC50 against ITK. Format: biochemical.
The next data set has as its target TXK (Homo sapiens (Human), UniProt P42681). Briefly: IC50 against TXK. It is filed as biochemical. The settings on record: for TXK/ITK: ratio of TXK IC50 to ITK IC50.
A further data set has as its system Jurkat IL2. The data set is described as follows: Jurkat IL2 IC50. It is filed as cell-based. As to conditions: Homo sapiens, Jurkat cells.
In the next data set the target is JAK3 (Homo sapiens (Human), UniProt P52333). Briefly: IC50 against JAK3. Format: biochemical.
The nature of a further data set: Rat PO PK. As to conditions: in vivo, 6 mg/kg, PO 6 mpk.
Another data set in a line: Mouse PO PK. The settings on record: in vivo, 10 mg/kg, PO 10 mpk.

Sequence of TXK (P42681 whole entry, species assumed): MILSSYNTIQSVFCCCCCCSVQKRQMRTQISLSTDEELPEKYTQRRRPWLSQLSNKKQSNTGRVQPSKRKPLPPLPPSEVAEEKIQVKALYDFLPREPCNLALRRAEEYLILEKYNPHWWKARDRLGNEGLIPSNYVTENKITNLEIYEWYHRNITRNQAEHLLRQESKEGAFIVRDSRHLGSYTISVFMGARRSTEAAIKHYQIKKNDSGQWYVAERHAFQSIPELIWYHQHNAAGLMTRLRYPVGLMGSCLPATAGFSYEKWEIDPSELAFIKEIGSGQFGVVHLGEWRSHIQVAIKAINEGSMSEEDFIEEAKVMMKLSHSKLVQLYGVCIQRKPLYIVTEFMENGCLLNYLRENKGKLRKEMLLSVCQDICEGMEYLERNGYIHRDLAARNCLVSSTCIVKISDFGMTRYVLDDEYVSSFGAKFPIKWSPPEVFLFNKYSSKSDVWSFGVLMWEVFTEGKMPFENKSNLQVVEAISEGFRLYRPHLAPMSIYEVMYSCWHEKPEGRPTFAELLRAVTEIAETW
Sequence of JAK3 (P52333 whole entry, species assumed): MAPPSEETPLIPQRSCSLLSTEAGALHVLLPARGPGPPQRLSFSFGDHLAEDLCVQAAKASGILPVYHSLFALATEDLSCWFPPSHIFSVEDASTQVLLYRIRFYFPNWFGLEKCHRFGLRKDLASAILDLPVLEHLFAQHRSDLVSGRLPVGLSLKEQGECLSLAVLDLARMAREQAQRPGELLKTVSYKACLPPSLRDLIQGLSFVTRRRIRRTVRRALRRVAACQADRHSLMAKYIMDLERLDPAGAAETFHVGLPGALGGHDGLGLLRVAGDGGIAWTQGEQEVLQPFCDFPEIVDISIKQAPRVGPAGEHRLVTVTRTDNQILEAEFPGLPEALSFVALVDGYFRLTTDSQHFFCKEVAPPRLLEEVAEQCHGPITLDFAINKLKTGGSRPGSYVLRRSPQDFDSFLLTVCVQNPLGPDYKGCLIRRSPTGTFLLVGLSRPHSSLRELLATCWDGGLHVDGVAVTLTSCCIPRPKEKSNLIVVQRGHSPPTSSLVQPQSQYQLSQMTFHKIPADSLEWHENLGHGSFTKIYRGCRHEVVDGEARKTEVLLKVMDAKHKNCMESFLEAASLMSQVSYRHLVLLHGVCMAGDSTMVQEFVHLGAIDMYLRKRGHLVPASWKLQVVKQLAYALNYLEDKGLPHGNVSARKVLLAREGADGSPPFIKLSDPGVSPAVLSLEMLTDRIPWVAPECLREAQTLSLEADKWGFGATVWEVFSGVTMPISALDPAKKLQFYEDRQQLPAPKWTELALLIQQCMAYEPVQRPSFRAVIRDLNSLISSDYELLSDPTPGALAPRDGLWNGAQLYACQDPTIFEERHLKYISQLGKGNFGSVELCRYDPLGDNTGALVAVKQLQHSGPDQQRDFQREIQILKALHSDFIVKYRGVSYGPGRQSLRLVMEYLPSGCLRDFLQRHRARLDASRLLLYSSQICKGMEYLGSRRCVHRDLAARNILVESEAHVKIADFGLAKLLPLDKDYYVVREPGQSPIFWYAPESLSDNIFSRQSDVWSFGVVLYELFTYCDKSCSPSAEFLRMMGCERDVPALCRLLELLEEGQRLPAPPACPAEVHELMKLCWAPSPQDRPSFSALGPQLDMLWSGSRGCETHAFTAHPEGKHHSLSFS
Sequence of BTK (Q06187 whole entry, species assumed): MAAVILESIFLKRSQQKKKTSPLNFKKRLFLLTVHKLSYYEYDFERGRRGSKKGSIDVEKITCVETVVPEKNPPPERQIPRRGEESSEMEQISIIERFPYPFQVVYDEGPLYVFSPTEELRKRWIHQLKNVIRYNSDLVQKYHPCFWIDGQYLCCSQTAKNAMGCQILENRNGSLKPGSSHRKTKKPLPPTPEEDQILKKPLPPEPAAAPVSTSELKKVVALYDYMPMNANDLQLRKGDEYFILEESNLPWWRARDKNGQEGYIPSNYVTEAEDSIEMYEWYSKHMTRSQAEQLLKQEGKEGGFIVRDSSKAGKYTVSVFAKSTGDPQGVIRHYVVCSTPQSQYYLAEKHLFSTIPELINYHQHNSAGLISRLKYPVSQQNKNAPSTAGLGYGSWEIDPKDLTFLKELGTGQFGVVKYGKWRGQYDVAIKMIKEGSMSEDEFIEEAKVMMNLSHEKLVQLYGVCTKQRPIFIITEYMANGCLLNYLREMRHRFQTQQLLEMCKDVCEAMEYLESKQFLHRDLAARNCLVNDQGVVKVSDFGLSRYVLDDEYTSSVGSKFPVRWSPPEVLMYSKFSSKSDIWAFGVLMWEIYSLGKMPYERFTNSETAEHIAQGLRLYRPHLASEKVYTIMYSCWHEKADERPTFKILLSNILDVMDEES
Sequence of ITK (Q08881 whole entry): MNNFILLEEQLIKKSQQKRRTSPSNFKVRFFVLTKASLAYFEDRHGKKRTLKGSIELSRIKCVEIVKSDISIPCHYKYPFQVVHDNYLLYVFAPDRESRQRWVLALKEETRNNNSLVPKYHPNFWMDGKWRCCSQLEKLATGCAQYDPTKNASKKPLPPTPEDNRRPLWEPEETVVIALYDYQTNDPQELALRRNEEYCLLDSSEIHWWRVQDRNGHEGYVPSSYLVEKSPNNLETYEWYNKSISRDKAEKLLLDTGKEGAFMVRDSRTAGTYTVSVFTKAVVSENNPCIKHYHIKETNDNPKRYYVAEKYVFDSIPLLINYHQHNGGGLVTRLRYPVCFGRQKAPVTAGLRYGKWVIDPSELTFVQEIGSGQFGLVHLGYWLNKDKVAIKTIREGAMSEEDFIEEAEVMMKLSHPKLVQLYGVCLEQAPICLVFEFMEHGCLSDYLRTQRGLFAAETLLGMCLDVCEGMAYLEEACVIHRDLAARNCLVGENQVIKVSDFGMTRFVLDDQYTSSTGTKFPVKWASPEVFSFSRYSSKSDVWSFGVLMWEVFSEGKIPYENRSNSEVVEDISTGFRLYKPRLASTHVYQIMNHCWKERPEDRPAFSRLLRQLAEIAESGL

As to `C=CC(=O)N1CCCN(C(=O)c2cc(Sc3cnc(NC(=O)c4cccc(CN(C)C)c4)s3)c(C)cc2OC)CC1` [Compound 33], the IC50 on BTK was 100 to 1000 nM; on ITK, less than 10 nM; at TXK, 1000 to 10000 nM; in the data set with Jurkat IL2, 0.1 µM; against JAK3 it was 1000 to 10000 nM. Also, the TXK/ITK on TXK is 239.91. Moreover, the AUC(0-t) in the data set “Rat PO PK” came out at 0.0004 µg·h/mL. Moreover, the Cmax in “Rat PO PK” worked out at 0.0157 µg/mL. The bioavailability in “Rat PO PK” came to 0.4%.
On to `C=CC(=O)N1CCN(C(=O)c2cc(Sc3cnc(NC(=O)C4CC4)s3)c(C)cc2OC)CC1` [Compound 1], for which the IC50 is 100 to 1000 nM on BTK; less than 10 nM on ITK; less than 10 nM on TXK; 0.01 µM in the data set with Jurkat IL2; 100 to 1000 nM at JAK3. The AUC(0-t) amounted to 0.335 µg·h/mL in the data set “Mouse PO PK” and 0.0109 µg·h/mL in “Rat PO PK”. Further, the maximum concentration (Cmax) in “Mouse PO PK” came out at 0.613 µg/mL; in “Rat PO PK” it was 0.097 µg/mL. Moreover, the bioavailability worked out at 20.1% in the data set “Mouse PO PK” and 10.9% in the data set “Rat PO PK”. Besides, at TXK, the TXK/ITK was determined as 7.378.
In the case of `C=CC(=O)N1CCCN(C(=O)c2cc(Sc3cnc(NC(=O)C4CC4)s3)c(C)cc2OC)C[C@H]1C` [Compound 44], the IC50 on BTK is 100 to 1000 nM; against TXK, 100 to 1000 nM; in the data set with Jurkat IL2, 0.031 µM; on JAK3, 1000 to 10000 nM. The exposure AUC(0-t) in the data set “Mouse PO PK” is 0.226 µg·h/mL; in “Rat PO PK” it was 0.0125 µg·h/mL. For the same molecule, the Cmax in “Mouse PO PK” was determined as 0.368 µg/mL; in “Rat PO PK”, 0.075 µg/mL. The figures for the bioavailability in “Mouse PO PK” and in the data set “Rat PO PK” were 9.8% and 12.5%, respectively.
As for `C=CC(=O)N1CCN(C(=O)c2cc(Sc3cnc(NC(=O)c4ccsc4)s3)c(C)cc2OC)CC1` [Compound 90], the IC50 against BTK was 10 to 100 nM; against ITK it was less than 10 nM; against TXK, less than 10 nM; with Jurkat IL2, 0.033 µM; against JAK3, 10 to 100 nM. The molecule further registered an area under the curve AUC(0-t) in the data set “Mouse PO PK” of 0.419 µg·h/mL. In “Mouse PO PK”, this molecule gave a Cmax of 0.527 µg/mL. The bioavailability in “Mouse PO PK” came out at 20%. Further, the TXK/ITK on TXK was 8.3141.
Regarding `C=CC(=O)N1CCN(C(=O)c2cc(Sc3cnc(NC(=O)C4CC4)s3)c(C)cc2OC)C[C@H]1C` [Compound 21], the IC50 on BTK was 100 to 1000 nM; against ITK it was less than 10 nM; against TXK it was 10 to 100 nM; in the data set with Jurkat IL2, 0.053 µM; against JAK3, 100 to 1000 nM. The figures for the AUC(0-t) in the data set “Mouse PO PK” and in the data set “Rat PO PK” were 0.215 µg·h/mL and 0.0181 µg·h/mL, respectively. Also, the Cmax in the data set “Mouse PO PK” is 0.292 µg/mL; in the data set “Rat PO PK” it was 0.148 µg/mL. Moreover, the bioavailability in the data set “Mouse PO PK” came out at 10.5%; in “Rat PO PK” it was 18.1%. Moreover, at TXK, the TXK/ITK is listed as 22.223.
On to `C=CC(=O)N1CCCN(C(=O)c2cc(Sc3cnc(NC(=O)c4ccc(F)c(CN(C)C)c4)s3)c(C)cc2OC)CC1` [Compound 50], for which the IC50 against BTK is 100 to 1000 nM; against ITK, less than 10 nM; on TXK, 1000 to 10000 nM; in the data set with Jurkat IL2, 0.036 µM; at JAK3, 1000 to 10000 nM. Also, at TXK, the TXK/ITK was 230.63. In the data set “Rat PO PK”, this molecule showed an AUC(0-t) of 0.0034 µg·h/mL. In “Rat PO PK”, the Cmax was found to be 0.0252 µg/mL. Further, the bioavailability in “Rat PO PK” turned out to be 3.4%.
Regarding `C=CC(=O)N1CCCN(C(=O)c2cc(Sc3cnc(NC(=O)c4cccc(CN5CCOCC5)c4)s3)c(C)cc2OC)CC1` [Compound 49], the IC50 was 1000 to 10000 nM at BTK, 10 to 100 nM against ITK, 1000 to 10000 nM at TXK and 1000 to 10000 nM against JAK3. In addition, the TXK/ITK on TXK was 37.652.
For the molecule `C=CC(=O)N1CC[C@H](N(C)C(=O)c2cc(Sc3cnc(NC(=O)C4CC4)s3)c(C)cc2OC)C1` [Compound 29], the IC50 is 100 to 1000 nM at BTK, less than 10 nM against ITK, less than 10 nM against TXK and 100 to 1000 nM at JAK3. On TXK, the TXK/ITK is given as 2.1804.
For the molecule `C=CC(=O)N1CCN(C(=O)c2cc(Sc3cnc(NC(=O)c4cnn(CCN(C)C)c4)s3)c(C)cc2OC)CC1` [Compound 102], the half-maximal inhibitory concentration (IC50) against BTK was 10 to 100 nM; on ITK, less than 10 nM; at TXK it was 10 to 100 nM; on JAK3, 100 to 1000 nM. Further, the TXK/ITK at TXK was 32.9.
On to `C=CC(=O)N1CCN(C(=O)c2cc(Sc3cnc(NC(C)=O)s3)c(C)cc2C)C[C@H]1C#N` [Compound 119], for which the IC50 against BTK was 10 to 100 nM; against ITK it was less than 10 nM; against TXK, less than 10 nM; at JAK3, less than 10 nM. Also, the TXK/ITK at TXK came out at 3.2.
Regarding `C=CC(=O)N1C[C@@H]2C[C@H]1CN2C(=O)c1cc(Sc2cnc(NC(C)=O)s2)c(C)cc1OC` [Compound 24], the IC50 on BTK is 10 to 100 nM; on ITK, less than 10 nM; against TXK, 10 to 100 nM; on JAK3 it was 100 to 1000 nM. Moreover, at TXK, the TXK/ITK is 6.6876.
In the case of `C=CC(=O)N1CCN(C(=O)c2cc(Sc3cnc(Nc4ncc(C)nc4C)s3)c(C)cc2C)CC1` [Compound 139], the concentration for half-maximal inhibition (IC50) against BTK was 100 to 1000 nM; against ITK, 10 to 100 nM; against TXK, 10 to 100 nM; at JAK3, 100 to 1000 nM. Besides, the TXK/ITK on TXK was determined as 4.65.
In the case of `C=CC(=O)N1CCN(C(=O)c2cc(Sc3cnc(NC4CC4)s3)c(C)cc2OC)CC1` [Compound 67], the concentration for half-maximal inhibition (IC50) against BTK is no less than 10000 nM; at ITK it was no less than 10000 nM; against TXK it was 1000 to 10000 nM; at JAK3 it was 1000 to 10000 nM. Further, at TXK, the TXK/ITK turned out to be 0.634.
For `C=CC(=O)N1CCN(C(=O)c2cc(Sc3cnc(NC(=O)c4cn(C)cn4)s3)c(C)cc2OC)CC1` [Compound 97], the IC50 against BTK was 100 to 1000 nM; against ITK, less than 10 nM; against TXK, 100 to 1000 nM; against JAK3, 1000 to 10000 nM. The TXK/ITK at TXK came to 12.995.
Take `C=CC(=O)N1CCN(C(=O)c2cc(Sc3cnc(NC(C)=O)s3)c(C)cc2OC)CC1` [Compound 2]: the IC50 is 100 to 1000 nM against BTK, less than 10 nM against ITK, 100 to 1000 nM at TXK and 100 to 1000 nM on JAK3. Besides, the TXK/ITK at TXK amounted to 19.869.
For the molecule `C=CC(=O)N1CCN(C(=O)c2cc(Sc3cnc(NC(=O)C4CC4)s3)c(C)cc2C)C[C@H]1C#N` [Compound 118], the IC50 on BTK was less than 10 nM; against ITK, no less than 10000 nM; on TXK, less than 10 nM; against JAK3, less than 10 nM.

The term IC50 denotes the concentration that gives 50% inhibition. Low readings indicate greater potency in that assay, high ones weaker potency in that assay. For orientation: AUC(0-t) means exposure summed from dosing to a finite time, without extrapolation to infinity. Low readings indicate low exposure, high ones high exposure. For orientation: Cmax means the peak of the concentration-time curve. Broadly, the bioavailability is dose-corrected exposure relative to a reference, in per cent. Lower therefore signals poor availability.
